Values quoted from earlier work, collected in patent US7473787B2, “Bicyclic [3.1.0] derivatives as glycine transporter inhibitors” (Pfizer Inc, priority 2003, dated 2009).

Test system: NMDA receptor
Conditions: effect blocked by a specific NMDA-site antagonist and a glycine-site antagonist

## CN(CCC(Oc1ccc(-c2ccccc2)cc1)c1ccc(F)cc1)CC(=O)O (stereo not shown) [NFPS]
  effect on postsynaptic current driven by the NMDA receptor: increased the postsynaptic current
